What was measured:
[1] = Vaporization rate of the pesticidal ingredient (silica gel trap, acetone extraction, gas chromatography); format: physicochemical; conditions: 10 g composition heated with 100 g calcium oxide and water; air sucked at 30 L/min for 5 min
Protocol: Pesticidal devices were prepared in the same method as test examples 5 and 8, and had water poured to the calcium oxide. After the reaction of calcium oxide with water started, the pesticidal device was replaced to a glass funnel with a lid. The vaporizing pesticidal ingredient was then trapped to silica gel in glass column connected to the funnel by sucking air at 30 L/min for 5 m in. Subsequently, the pesticidal ingredient present in the silica gel was extracted with acetone. The vaporization rate for the pesticidal ingredient was then measured by the quantitative analysis of gas chromatography.
A pesticidal device was prepared by placing:
1) 10 g of the pesticidal composition obtained in example 2 was placed interior to the separating wall of the container presented in FIG. 1 and
2) 100 g of calcium oxide with 1-20 mesh was placed exterior to the said separating wall but within the said container. The acquired pesticidal device was then tested for the vaporization rate by utilizing the procedure recited in test example 10.

[2] = Japanese Laid-open patent No. sho-53-109945A, table 2, sample #23; cited from earlier work

SMILES	vaporization rate for the pesticidal ingredient [1]	vaporization rate [2]
COC(=O)c1cc(Cl)ccc1NS(=O)(=O)C(F)(F)F [2-methoxycarbonyl-4-chlorotrifluoromethanesulfonanilide]	78.5%	–
CC(C)=CC1C(C(=O)OCN2C(=O)C3=C(CCCC3)C2=O)C1(C)C (stereo not drawn) [tetramethrin]	88.1%	63.0%

Reference: patent US6451332B1, “Pesticidal composition having high pesticidal ingredient vaporization rate method for controlling pests, and method for producing a pesticidal composition” (Sumitomo Chemical Company, Limited, priority 1997, dated 2002)
